Data published in ChEMBL document CHEMBL4043290, “Structure-based Design of Pyridone-Aminal eFT508 Targeting Dysregulated Translation by Selective Mitogen-activated Protein Kinase Interacting Kinases 1 and 2 (MNK1/2) Inhibition” (J Med Chem, 2018).

What was measured:
[1] = target: MAP kinase-interacting serine/threonine-protein kinase 1 (Homo sapiens, UniProt Q9BUB5)
[2] = target: MAP kinase-interacting serine/threonine-protein kinase 2 (Homo sapiens, UniProt Q9HBH9)
[3] = target: MAP kinase-interacting serine/threonine-protein kinase 1/2 (Homo sapiens, UniProt Q9HBH9+Q9BUB5)
[4] = Metabolic stability in mouse liver microsomes assessed as parent compound remaining at 1 uM after 30 mins by LC-ESI-TOF/MS method; type: ADME, microsome; conditions: read-out: Stability
[5] = Metabolic stability in rat liver microsomes assessed as parent compound remaining at 1 uM after 30 mins by LC-ESI-TOF/MS method; type: ADME, microsome; conditions: read-out: Stability
[6] = Metabolic stability in human liver microsomes assessed as parent compound remaining at 1 uM after 30 mins by LC-ESI-TOF/MS method; type: ADME, microsome; conditions: read-out: Stability
[7] = Oral bioavailability in Balb/c mouse at 10 mg/kg by LC-ESI-TOF/MS or LC-ESI-MS/MS method; type: ADME, organism-based; conditions: in vivo
[8] = Oral bioavailability in Sprague-Dawley rat at 10 mg/kg by LC-ESI-TOF/MS or LC-ESI-MS/MS method; type: ADME, organism-based; conditions: in vivo
[9] = Oral bioavailability in Beagle dog at 3 mg/kg by LC-ESI-TOF/MS or LC-ESI-MS/MS method; type: ADME, organism-based, Canis lupus familiaris; conditions: in vivo
[10] = Oral bioavailability in cynomolgus monkey at 3 mg/kg by LC-ESI-TOF/MS or LC-ESI-MS/MS method; type: ADME, organism-based, Macaca fascicularis; conditions: in vivo
[11] = target: T1, Serine/threonine-protein kinase 17A (Homo sapiens) (UniProt Q9UEE5); test: Inhibition of DRAK1 (unknown origin) at 1 uM relative to control
T1 sequence (whole entry): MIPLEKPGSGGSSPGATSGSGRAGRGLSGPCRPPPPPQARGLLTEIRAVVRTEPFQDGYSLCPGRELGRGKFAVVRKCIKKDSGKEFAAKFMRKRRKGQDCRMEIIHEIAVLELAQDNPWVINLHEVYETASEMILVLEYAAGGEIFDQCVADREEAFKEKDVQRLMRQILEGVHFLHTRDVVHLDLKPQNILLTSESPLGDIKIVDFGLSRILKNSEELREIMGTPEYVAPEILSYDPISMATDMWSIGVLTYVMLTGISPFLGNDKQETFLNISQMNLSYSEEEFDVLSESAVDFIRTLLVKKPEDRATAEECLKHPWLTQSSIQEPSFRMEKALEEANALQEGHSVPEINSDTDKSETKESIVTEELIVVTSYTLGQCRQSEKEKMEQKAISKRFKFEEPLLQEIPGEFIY

[12] = target: Platelet-derived growth factor receptor alpha (Homo sapiens) (UniProt P16234); test: Inhibition of PDGFRA (unknown origin) at 1 uM relative to control
HCT-116 = test: Antiproliferative activity against human HCT116 cells after 72 hrs by CellTiter-Glo assay; type: functional, cell-based; conditions: HCT-116, 72 h
SW-620 = test: Antiproliferative activity against human SW620 cells after 72 hrs by CellTiter-Glo assay; type: functional, cell-based; conditions: SW-620, 72 h
[13] = target: Vascular endothelial growth factor receptor 2 (Homo sapiens) (UniProt P35968); test: Inhibition of KDR (unknown origin) at 1 uM relative to control
Chain of Vascular endothelial growth factor receptor 2 (Homo sapiens) (P35968 whole entry): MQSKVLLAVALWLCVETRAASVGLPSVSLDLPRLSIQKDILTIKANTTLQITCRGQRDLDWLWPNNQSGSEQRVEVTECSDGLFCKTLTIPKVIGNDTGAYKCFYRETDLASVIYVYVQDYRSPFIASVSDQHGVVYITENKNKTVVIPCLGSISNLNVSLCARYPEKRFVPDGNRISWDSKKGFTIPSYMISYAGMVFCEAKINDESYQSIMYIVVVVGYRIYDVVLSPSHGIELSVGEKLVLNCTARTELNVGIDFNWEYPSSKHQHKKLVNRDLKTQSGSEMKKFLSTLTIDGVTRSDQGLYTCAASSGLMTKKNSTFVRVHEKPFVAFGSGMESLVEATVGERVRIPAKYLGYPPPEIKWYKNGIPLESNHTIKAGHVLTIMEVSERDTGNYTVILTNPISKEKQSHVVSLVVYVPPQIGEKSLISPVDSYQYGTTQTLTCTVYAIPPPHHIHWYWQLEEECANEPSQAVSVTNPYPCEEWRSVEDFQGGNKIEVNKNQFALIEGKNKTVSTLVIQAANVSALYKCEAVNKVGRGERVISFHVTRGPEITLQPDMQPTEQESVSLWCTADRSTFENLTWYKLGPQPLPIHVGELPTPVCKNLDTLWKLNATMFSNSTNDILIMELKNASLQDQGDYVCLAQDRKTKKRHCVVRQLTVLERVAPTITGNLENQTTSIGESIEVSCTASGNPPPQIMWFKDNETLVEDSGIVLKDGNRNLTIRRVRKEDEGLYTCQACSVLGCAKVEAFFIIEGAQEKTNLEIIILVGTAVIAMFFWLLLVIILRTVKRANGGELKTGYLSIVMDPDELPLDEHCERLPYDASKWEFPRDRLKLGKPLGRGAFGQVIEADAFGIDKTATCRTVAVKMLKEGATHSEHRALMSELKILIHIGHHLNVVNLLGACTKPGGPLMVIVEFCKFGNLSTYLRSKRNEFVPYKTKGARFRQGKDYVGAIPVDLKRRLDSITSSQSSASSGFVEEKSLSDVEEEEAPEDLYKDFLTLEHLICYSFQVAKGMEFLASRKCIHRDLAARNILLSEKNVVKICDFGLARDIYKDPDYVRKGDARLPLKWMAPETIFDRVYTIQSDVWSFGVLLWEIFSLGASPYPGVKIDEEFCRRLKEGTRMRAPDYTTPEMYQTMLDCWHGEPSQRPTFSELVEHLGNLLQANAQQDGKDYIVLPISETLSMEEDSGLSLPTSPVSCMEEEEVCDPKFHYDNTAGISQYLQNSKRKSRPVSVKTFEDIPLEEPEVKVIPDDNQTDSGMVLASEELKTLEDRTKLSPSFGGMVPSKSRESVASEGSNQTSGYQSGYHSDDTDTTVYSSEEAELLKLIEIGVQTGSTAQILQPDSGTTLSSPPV

[14] = target: Tyrosine-protein kinase ABL1 (Homo sapiens) (UniProt P00519); test: Inhibition of Abl1 (unknown origin) at 1 uM relative to control
[15] = target: Proto-oncogene tyrosine-protein kinase receptor Ret (Homo sapiens) (UniProt P07949); test: Inhibition of RET (unknown origin) at 1 uM relative to control
Chain of Proto-oncogene tyrosine-protein kinase receptor Ret (Homo sapiens) (P07949 whole entry): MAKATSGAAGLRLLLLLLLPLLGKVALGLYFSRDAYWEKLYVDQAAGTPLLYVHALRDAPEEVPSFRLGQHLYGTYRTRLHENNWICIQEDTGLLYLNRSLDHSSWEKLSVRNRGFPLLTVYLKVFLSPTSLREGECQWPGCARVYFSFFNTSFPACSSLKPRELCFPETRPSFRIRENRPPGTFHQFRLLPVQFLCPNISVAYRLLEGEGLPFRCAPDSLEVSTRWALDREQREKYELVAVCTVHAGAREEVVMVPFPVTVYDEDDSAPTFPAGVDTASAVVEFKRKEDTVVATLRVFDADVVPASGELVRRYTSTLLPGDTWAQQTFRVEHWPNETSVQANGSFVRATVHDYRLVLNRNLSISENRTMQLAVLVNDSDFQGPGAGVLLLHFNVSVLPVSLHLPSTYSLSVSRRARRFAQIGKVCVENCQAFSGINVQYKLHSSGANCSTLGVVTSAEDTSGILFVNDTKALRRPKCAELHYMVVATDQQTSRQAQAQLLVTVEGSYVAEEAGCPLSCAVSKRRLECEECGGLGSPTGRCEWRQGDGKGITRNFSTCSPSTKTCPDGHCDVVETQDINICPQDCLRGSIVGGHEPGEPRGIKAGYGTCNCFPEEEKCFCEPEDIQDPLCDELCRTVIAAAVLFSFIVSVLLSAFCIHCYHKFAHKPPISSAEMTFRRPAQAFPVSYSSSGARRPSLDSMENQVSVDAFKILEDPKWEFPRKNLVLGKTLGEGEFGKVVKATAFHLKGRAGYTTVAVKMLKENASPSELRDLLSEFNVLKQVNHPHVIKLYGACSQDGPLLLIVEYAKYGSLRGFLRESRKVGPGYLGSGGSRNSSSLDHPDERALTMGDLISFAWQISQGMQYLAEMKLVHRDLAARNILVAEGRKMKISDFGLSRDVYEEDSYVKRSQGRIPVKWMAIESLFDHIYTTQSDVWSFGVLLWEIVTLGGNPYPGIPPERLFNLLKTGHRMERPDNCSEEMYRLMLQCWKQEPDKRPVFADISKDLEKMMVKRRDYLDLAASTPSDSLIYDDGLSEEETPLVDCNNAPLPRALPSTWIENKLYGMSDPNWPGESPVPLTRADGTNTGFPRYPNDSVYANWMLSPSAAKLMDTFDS

[16] = target: Receptor-type tyrosine-protein kinase FLT3 (Homo sapiens) (UniProt P36888); test: Inhibition of FLT3 (unknown origin) at 1 uM relative to control
Chain of Receptor-type tyrosine-protein kinase FLT3 (Homo sapiens) (P36888 whole entry): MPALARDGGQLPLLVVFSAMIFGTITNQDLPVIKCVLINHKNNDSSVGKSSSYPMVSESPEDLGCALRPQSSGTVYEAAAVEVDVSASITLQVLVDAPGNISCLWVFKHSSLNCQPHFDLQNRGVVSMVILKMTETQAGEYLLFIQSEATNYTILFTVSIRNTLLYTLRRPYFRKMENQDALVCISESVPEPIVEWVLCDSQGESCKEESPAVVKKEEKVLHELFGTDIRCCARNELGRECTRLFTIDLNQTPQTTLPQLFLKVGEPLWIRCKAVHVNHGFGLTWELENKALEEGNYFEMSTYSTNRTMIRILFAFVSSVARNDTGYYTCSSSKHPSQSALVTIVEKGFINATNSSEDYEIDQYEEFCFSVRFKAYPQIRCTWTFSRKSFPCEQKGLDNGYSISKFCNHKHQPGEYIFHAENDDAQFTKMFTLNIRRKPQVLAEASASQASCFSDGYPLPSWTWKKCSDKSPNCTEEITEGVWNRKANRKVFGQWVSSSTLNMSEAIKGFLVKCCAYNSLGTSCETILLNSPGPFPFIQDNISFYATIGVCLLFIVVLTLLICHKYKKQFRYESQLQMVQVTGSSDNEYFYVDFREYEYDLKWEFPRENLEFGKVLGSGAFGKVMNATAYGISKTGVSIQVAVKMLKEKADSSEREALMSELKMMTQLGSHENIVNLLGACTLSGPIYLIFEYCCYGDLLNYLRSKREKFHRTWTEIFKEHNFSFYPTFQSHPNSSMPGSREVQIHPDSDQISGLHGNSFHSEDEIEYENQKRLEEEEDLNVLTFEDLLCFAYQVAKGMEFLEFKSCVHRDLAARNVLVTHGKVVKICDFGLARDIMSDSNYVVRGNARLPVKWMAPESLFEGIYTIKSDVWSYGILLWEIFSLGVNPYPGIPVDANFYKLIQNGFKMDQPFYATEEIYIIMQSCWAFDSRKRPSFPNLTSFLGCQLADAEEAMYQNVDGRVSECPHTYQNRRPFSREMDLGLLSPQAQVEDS

[17] = target: Tyrosine-protein kinase Yes (Homo sapiens) (UniProt P07947); test: Inhibition of YES1 (unknown origin) at 1 uM relative to control
Chain of Tyrosine-protein kinase Yes (Homo sapiens) (P07947 2-543 limits assumed): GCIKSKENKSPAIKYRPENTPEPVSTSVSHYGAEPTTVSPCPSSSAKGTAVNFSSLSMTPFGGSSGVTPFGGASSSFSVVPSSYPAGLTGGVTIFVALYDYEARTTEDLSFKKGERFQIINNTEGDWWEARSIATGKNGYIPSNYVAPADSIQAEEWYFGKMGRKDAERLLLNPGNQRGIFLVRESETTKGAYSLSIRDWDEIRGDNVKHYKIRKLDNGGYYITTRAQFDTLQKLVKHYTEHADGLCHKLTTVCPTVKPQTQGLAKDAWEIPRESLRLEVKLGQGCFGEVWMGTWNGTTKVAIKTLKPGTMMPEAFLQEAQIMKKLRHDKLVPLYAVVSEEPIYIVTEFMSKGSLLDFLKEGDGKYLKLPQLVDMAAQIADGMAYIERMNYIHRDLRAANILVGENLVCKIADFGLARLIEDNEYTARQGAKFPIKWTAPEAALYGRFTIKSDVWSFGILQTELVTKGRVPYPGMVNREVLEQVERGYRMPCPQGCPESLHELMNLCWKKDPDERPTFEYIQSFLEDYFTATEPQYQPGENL

[18] = target: Dual specificity tyrosine-phosphorylation-regulated kinase 1A (Homo sapiens) (UniProt Q13627); test: Inhibition of DYRK1A (unknown origin) at 1 uM relative to control
[19] = target: Platelet-derived growth factor receptor beta (Homo sapiens) (UniProt P09619); test: Inhibition of PDGFRB (unknown origin) at 1 uM relative to control
[20] = target: Tyrosine-protein kinase Lck (Homo sapiens) (UniProt P06239); test: Inhibition of LCK (unknown origin) at 1 uM relative to control
[21] = target: Aurora kinase A (Homo sapiens) (UniProt O14965); test: Inhibition of aurora A (unknown origin) at 1 uM relative to control
[22] = target: T2, Serine/threonine-protein kinase BRSK1 (Homo sapiens) (UniProt Q8TDC3); test: Inhibition of BRSK1 (unknown origin) at 1 uM relative to control
T2 sequence (whole entry): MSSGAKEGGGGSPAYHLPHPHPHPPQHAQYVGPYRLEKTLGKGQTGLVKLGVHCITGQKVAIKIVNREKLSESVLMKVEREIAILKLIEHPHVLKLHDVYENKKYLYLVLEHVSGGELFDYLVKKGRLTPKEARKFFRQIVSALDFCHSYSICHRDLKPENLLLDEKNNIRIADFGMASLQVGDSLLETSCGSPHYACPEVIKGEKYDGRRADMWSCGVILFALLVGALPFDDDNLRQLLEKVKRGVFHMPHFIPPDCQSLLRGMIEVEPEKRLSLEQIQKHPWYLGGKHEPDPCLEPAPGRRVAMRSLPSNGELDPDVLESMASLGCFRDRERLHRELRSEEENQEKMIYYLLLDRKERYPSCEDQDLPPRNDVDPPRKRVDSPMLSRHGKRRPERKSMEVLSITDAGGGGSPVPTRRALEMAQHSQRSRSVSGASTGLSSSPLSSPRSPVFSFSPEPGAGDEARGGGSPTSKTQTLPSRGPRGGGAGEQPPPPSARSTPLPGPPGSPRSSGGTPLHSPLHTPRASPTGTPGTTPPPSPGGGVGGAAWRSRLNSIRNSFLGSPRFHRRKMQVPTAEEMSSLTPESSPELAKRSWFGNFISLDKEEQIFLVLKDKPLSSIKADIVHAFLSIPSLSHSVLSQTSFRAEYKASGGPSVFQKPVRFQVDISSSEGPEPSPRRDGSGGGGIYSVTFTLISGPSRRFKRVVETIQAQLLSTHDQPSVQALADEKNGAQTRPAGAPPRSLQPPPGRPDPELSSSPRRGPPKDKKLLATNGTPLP

[23] = target: Dual specificity tyrosine-phosphorylation-regulated kinase 2 (Homo sapiens) (UniProt Q92630); test: Inhibition of DYRK2 (unknown origin) at 1 uM relative to control
physchem = conditions: octanol/water
in vitro = conditions: human, Caco-2
PC-3 = test: Antiproliferative activity against human PC3 cells after 72 hrs by CellTiter-Glo assay; type: functional, cell-based; conditions: PC-3, 72 h
[24] = target: Cyclin-dependent kinase 2 (Homo sapiens) (UniProt P24941); test: Inhibition of CDK2 (unknown origin) at 1 uM relative to control
[25] = target: Dual specificity protein kinase CLK1 (Homo sapiens) (UniProt P49759); test: Inhibition of CLK1 (unknown origin) at 1 uM relative to control
[26] = target: Serine/threonine-protein kinase pim-1 (Homo sapiens) (UniProt P11309); test: Inhibition of PIM1 (unknown origin) at 1 uM relative to control
[27] = target: Calcium/calmodulin-dependent protein kinase type II subunit alpha (Homo sapiens) (UniProt Q9UQM7); test: Inhibition of CAMK2A (unknown origin) at 1 uM relative to control
[28] = target: Rho-associated protein kinase 1 (Homo sapiens) (UniProt Q13464); test: Inhibition of ROCK1 (unknown origin) at 1 uM relative to control
[29] = target: Interleukin-1 receptor-associated kinase 1 (Homo sapiens) (UniProt P51617); test: Inhibition of IRAK1 (unknown origin) at 1 uM relative to control
[30] = target: 5'-AMP-activated protein kinase catalytic subunit alpha-1 (Homo sapiens) (UniProt Q13131); test: Inhibition of AMPKA1 (unknown origin) at 1 uM relative to control
[31] = target: 5'-AMP-activated protein kinase subunit beta-1 (Homo sapiens) (UniProt Q9Y478); test: Inhibition of AMPKB1 (unknown origin) at 1 uM relative to control
[32] = target: 5'-AMP-activated protein kinase subunit gamma-1 (Homo sapiens) (UniProt P54619); test: Inhibition of AMPKG1 (unknown origin) at 1 uM relative to control
[33] = target: High affinity nerve growth factor receptor (Homo sapiens) (UniProt P04629); test: Inhibition of TRKA (unknown origin) at 1 uM relative to control
[34] = target: Serine/threonine-protein kinase B-raf (Homo sapiens) (UniProt P15056); test: Inhibition of BRAF (unknown origin) at 1 uM relative to control
[35] = target: Dual specificity mitogen-activated protein kinase kinase 2 (Homo sapiens) (UniProt P36507); test: Inhibition of MEK2 (unknown origin) at 1 uM relative to control
[36] = target: Ribosomal protein S6 kinase alpha-1 (Homo sapiens) (UniProt Q15418); test: Inhibition of RSK1 (unknown origin) at 1 uM relative to control

Chain of MAP kinase-interacting serine/threonine-protein kinase 2 (Q9HBH9 whole entry): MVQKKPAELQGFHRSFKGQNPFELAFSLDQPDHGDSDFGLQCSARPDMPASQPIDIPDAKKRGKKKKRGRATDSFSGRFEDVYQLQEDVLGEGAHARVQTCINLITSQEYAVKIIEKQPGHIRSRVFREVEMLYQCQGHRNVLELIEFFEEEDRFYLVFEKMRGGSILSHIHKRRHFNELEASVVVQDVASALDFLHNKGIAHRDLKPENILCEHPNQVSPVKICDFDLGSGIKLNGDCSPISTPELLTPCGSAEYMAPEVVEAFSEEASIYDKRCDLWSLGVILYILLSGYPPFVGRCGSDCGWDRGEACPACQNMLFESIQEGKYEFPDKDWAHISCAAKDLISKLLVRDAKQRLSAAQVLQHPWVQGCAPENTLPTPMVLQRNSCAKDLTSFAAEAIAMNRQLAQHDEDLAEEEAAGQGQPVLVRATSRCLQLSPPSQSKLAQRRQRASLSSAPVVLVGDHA
Chain of MAP kinase-interacting serine/threonine-protein kinase 1 (Q9BUB5 whole entry): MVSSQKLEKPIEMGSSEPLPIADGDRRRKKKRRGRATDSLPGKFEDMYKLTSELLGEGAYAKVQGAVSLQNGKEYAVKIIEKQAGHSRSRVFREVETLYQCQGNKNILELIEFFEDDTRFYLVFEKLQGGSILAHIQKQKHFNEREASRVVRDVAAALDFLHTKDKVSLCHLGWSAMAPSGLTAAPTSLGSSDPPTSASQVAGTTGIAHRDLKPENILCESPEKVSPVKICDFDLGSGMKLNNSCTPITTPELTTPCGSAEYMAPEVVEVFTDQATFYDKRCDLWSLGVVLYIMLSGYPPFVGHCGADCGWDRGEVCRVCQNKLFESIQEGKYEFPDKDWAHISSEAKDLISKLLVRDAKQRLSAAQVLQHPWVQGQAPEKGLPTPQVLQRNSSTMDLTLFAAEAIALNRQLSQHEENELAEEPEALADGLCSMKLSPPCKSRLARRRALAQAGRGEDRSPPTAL

SMILES: Cc1n[nH]c(C)c1-c1ccc(C2CCCN2)cc1 (stereo not given)
- IC50 [1]: 4700 nM

SMILES: c1cnn2c(-c3ccncc3)cnc2c1
- IC50 [1]: 1800 nM

SMILES: CC1(C)NC(=O)c2ccc(Nc3ccncn3)cc21
- IC50 [1]: 100 nM
- IC50 [2]: 61 nM
- IC50 [3]: 4400 nM

SMILES: Cc1cc(Nc2cc(N)ncn2)c(=O)n2c1C(=O)NC21CCC(F)(F)CC1
- remaining at 0.5 h, 1 µM [4]: 99%
- remaining at 0.5 h, 1 µM [5]: 100%
- remaining at 0.5 h, 1 µM [6]: 97%
- bioavailability [7]: 85%
- bioavailability [8]: 56%
- bioavailability [9]: > 100%
- bioavailability [10]: 58%
- inhibition [11]: 68%
- IC50 [1]: 1.4 nM

SMILES: CC1(c2cccc(Cl)c2)NC(=O)c2c(Cl)cc(Nc3cc(NC(=O)C4CC4)ncn3)c(=O)n21 (stereo not given)
- inhibition [12]: 10%
- EC50 (HCT-116): 2700 nM
- EC50 (SW-620): 2800 nM
- inhibition [13]: 10%
- inhibition [14]: 10%
- inhibition [15]: 10%
- inhibition [16]: 10%
- inhibition [17]: 10%
- inhibition [18]: 10%
- inhibition [19]: 10%
- inhibition [20]: 10%
- inhibition [21]: 10%

SMILES: Nc1ncnc(Nc2cc(Cl)c3n(c2=O)C2(CCCCC2)NC3=O)c1Cl
- IC50 [2]: 0.36 nM
- IC50 [3]: 0.084 nM

SMILES: c1ccc(-c2n[nH]c3ccc(-c4ccncc4)cc23)cc1
- IC50 [1]: 3800 nM

SMILES: NC(=O)c1cccn2c(-c3cccnc3)cnc12
- IC50 [1]: 6400 nM

SMILES: CC1(C)NC(=O)c2c(Cl)cc(Nc3cc(N)ncn3)c(=O)n21
- inhibition [13]: 74%
- remaining at 0.5 h, 1 µM [4]: 95%
- remaining at 0.5 h, 1 µM [5]: 100%
- remaining at 0.5 h, 1 µM [6]: 100%
- bioavailability [7]: 79%
- bioavailability [8]: 50%
- bioavailability [9]: > 100%
- bioavailability [10]: 54%
- inhibition [11]: 88%
- inhibition [22]: 52%
- inhibition [23]: 67%
- logP (physchem): 1.8
- Papp A→B at 2 h, 5 µM (in vitro): 0.9 ×10⁻⁶ cm/s

SMILES: CC1(C)NC(=O)c2ccc(Nc3cc(NC(=O)C4CC4)ncn3)c(=O)n21
- EC50 (PC-3): > 30000 nM
- EC50 (HCT-116): > 30000 nM
- EC50 (SW-620): > 30000 nM
- inhibition [13]: 4%
- inhibition [14]: 4%
- inhibition [15]: 4%
- inhibition [16]: 4%

SMILES: O=C1NCc2cc(Nc3cc(NC(=O)C4CC4)ncn3)ccc21
- IC50 [1]: 1.9 nM
- IC50 [2]: 5.7 nM
- IC50 [3]: 430 nM

SMILES: c1cc(-c2cc(C3CCNCC3)[nH]n2)ccn1
- IC50 [1]: 5500 nM

SMILES: N[C@H]1C[C@H](Oc2ccc3ncc(-c4ccc5cnccc5c4)n3n2)C1
- inhibition [12]: 17%
- inhibition [24]: 17%
- EC50 (PC-3): 590 nM
- EC50 (HCT-116): 210 nM
- EC50 (SW-620): 310 nM
- inhibition [13]: 17%
- inhibition [16]: 17%
- inhibition [18]: 17%
- inhibition [19]: 17%
- inhibition [25]: 17%
- inhibition [26]: 17%
- inhibition [27]: 17%
- inhibition [28]: 17%
- inhibition [29]: 17%
- inhibition [30]: 17%
- inhibition [31]: 17%
- inhibition [32]: 17%
- inhibition [33]: 17%
- inhibition [34]: 17%
- inhibition [35]: 17%
- inhibition [36]: 17%
- IC50 [1]: 1.5 nM
- IC50 [2]: 7.8 nM
- IC50 [3]: 120 nM

SMILES: CC1NC(=O)c2ccc(Nc3ccncn3)cc21 (stereo not given)
- IC50 [1]: 28 nM
- IC50 [2]: 45 nM
- IC50 [3]: 28000 nM

SMILES: NC(=O)c1ccc(Nc2ncnc3[nH]cnc23)cc1
- IC50 [1]: 60 nM

SMILES: NC(=O)c1ccc(Nc2ccncn2)c(=O)[nH]1
- IC50 [1]: 3000 nM

SMILES: NC(=O)c1ccc(Nc2ccncn2)cc1
- IC50 [1]: 690 nM

SMILES: O=C1NCc2cc(Nc3ncnc4[nH]cnc34)ccc21
- IC50 [1]: 23 nM
